Target: T1, LXRβ (Homo sapiens, UniProt P55055)
T1 construct: Co-transfection expression plasmids, comprising full-length LXRα (pCMX-h LXRα or LXRβ (pCMX-hLXRβ)); expressed in transfected cells; host or cells: CV-1 African green monkey kidney cells, transient transfection with pCMX-hLXRβ
T1 sequence (P55055 1-460): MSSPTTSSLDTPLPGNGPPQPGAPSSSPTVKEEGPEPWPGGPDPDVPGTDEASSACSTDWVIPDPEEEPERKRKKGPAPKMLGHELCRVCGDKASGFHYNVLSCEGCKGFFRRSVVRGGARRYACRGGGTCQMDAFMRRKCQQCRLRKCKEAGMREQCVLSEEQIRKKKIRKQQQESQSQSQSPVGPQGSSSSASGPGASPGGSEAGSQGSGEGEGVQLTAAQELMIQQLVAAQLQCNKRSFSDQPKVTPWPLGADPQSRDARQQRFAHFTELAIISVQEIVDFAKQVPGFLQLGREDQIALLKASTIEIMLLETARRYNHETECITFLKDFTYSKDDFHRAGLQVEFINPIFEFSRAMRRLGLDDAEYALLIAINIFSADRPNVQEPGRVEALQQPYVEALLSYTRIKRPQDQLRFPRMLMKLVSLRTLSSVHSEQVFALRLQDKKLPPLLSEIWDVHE
T1 sequence (P19793 1-462 partner): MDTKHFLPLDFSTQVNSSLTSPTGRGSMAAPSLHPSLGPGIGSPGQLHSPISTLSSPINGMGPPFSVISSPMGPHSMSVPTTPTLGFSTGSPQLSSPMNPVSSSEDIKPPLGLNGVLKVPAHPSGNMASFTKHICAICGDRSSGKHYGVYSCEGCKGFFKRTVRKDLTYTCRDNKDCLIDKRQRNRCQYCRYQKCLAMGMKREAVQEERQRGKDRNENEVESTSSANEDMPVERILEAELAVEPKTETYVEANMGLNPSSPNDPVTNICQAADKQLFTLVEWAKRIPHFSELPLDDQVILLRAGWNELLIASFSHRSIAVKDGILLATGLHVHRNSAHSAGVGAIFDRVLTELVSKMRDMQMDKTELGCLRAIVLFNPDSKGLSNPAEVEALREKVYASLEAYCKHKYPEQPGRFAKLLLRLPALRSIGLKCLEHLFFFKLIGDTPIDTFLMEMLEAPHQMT
Test: LXR/LXRE co-transfection assay (luciferase reporter) in CV-1 cells, LXRβ
Assay type: cell-based
Details: for EC50: CV-1 cells transfected with pCMX-hLXRβ and LXREx1-Tk-Luciferase, 20 hours incubation, read-out: LXRbeta agonism EC50; for Emax: read-out: LXRbeta % EFFICACY
In short: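 CV-1 cells transiently co-transfected with full-length human LXRβ, LXRE-Tk-luciferase reporter and β-galactosidase control, then exposed to compound (≤0.5% DMSO) for 20 h at 37 °C before luminescence read. EC50 from 10-point, half-log dose curves; efficacy relative to the sulfonamide high control, means of 2–3 experiments.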

[1] = CV-1 cells, relative to maximum response of high control N-(3-((4-fluorophenyl)-(naphthalene-2-sulfonyl)amino)propyl)-2,2-dimethylpropionamide

Compound | EC50 | Emax [1] | LXRbeta % EFFICACY [1]
CC(O)C(F)(F)c1cc(-c2ccc(-c3cc(F)c(CO)c(S(C)(=O)=O)c3)cc2-n2nncc2-c2ccc(OC(F)(F)F)cc2)n(C)n1 (centres unmarked) [Example 6, 1,1-difluoro-1-(5-(3′-fluoro-4′-(hydroxymethyl)-5′-(methylsulfonyl)-3-(5-(4-(trifluoromethoxy)phenyl)-1H-1,2,3-triazol-1-yl)biphenyl-4-yl)-1-methyl-1H-pyrazol-3-yl)propan-2-ol] | 0.252 µM | 84% | –
Cc1nc(-c2ccc(OC(F)(F)F)cc2)c(-c2cc(-c3cc(F)c(CO)c(S(C)(=O)=O)c3)ccc2-n2ccc(C(C)(F)F)n2)o1 [Example 313, (4′-(3-(1,1-difluoroethyl)-1H-pyrazol-1-yl)-3-fluoro-3′-(2-methyl-4-(4-(trifluoromethoxy)phenyl)oxazol-5-yl)-5-(methylsulfonyl)-[1,1′-biphenyl]-4-yl)methanol] | 0.02 µM | 59% | –
Cc1nc(-c2ccc3c(c2)OC(F)(F)O3)c(-c2cc(-c3cc(F)c(CO)c(S(C)(=O)=O)c3)ccc2-c2cc(-c3cnco3)nn2C)o1 [Example 57, (3′-(4-(2,2-difluorobenzo[d][1,3]dioxol-5-yl)-2-methyloxazol-5-yl)-3-fluoro-4′-(1-methyl-3-(oxazol-5-yl)-1H-pyrazol-5-yl)-5-(methylsulfonyl)-[1,1′-biphenyl]-4-yl)methanol] | 0.158 µM | 18% | –
Cc1nc(-c2ccc(OC(F)(F)F)cc2)c(-c2cc(-c3cc(F)c(CO)c(S(C)(=O)=O)c3)ccc2-n2ccc(C(N)=O)n2)o1 [Example 320, 1-(3′-fluoro-4′-(hydroxymethyl)-3-(2-methyl-4-(4-(trifluoromethoxy)phenyl)oxazol-5-yl)-5′-(methylsulfonyl)biphenyl-4-yl)-1H-pyrazole-3-carboxamide] | 0.472 µM | 58% | –
Cc1nc(-c2ccc3c(c2)OC(F)(F)O3)c(-c2cc(-c3cccc(S(C)(=O)=O)c3)ccc2-c2cc(C(C)C#N)nn2C)o1 (centres unmarked) [Example 116, 2-(5-(3-(4-(2,2-difluorobenzo[d][1,3]dioxol-5-yl)-2-methyloxazol-5-yl)-3′-(methylsulfonyl)-[1,1′-biphenyl]-4-yl)-1-methyl-1H-pyrazol-3-yl)propanenitrile] | 0.026 µM | – | 99%
Cn1nc(C(F)(F)CO)cc1-c1ccc(-c2cccc(S(C)(=O)=O)c2)cc1-n1nncc1-c1ccc(OC(F)(F)F)cc1 [Example 25, 2,2-difluoro-2-(1-methyl-5-(3′-(methylsulfonyl)-3-(5-(4-(trifluoromethoxy)phenyl)-1H-1,2,3-triazol-1-yl)-[1,1′-biphenyl]-4-yl)-1H-pyrazol-3-yl)ethanol] | 1.02 µM | 78% | –
Cc1c(C(C)(F)F)nn(C)c1-c1ccc(-c2ccc(CO)c(S(C)(=O)=O)c2)cc1-n1nncc1-c1ccc(OC(F)(F)F)cc1 [Example 11, (4′-(3-(1,1-difluoroethyl)-1,4-dimethyl-1H-pyrazol-5-yl)-3-(methylsulfonyl)-3′-(5-(4-(trifluoromethoxy)phenyl)-1H-1,2,3-triazol-1-yl)biphenyl-4-yl)methanol] | 0.015 µM | 104% | –
Cc1nc(-c2ccc(OC(F)(F)F)cc2)c(-c2cc(-c3cc(F)c(CO)c(S(C)(=O)=O)c3)ccc2-n2nc(C(F)(F)F)cc2Cl)o1 [Example 348, (4′-(5-chloro-3-(trifluoromethyl)-1H-pyrazol-1-yl)-3-fluoro-3′-(2-methyl-4-(4-(trifluoromethoxy)phenyl)oxazol-5-yl)-5-(methylsulfonyl)biphenyl-4-yl)methanol] | 0.059 µM | 57% | –
Cc1nc(-c2ccc3c(c2)OC(F)(F)O3)c(-c2cc(-c3ccc(CO)c(S(C)(=O)=O)c3)ccc2-n2nc(C(F)(F)F)cc2C)o1 [Example 330, (3′-(4-(2,2-difluorobenzo[d][1,3]dioxol-5-yl)-2-methyloxazol-5-yl)-4′-(5-methyl-3-(trifluoromethyl)-1H-pyrazol-1-yl)-3-(methylsulfonyl)biphenyl-4-yl)methanol] | 0.005 µM | 64% | –
CNC(=O)C(F)(F)c1cc(-c2ccc(-c3cc(F)c(CO)c(S(C)(=O)=O)c3)cc2-c2oc(C)nc2-c2ccc(OC(F)F)c(F)c2)n(C)n1 [Example 78, 2-(5-(3-(4-(4-(difluoromethoxy)-3-fluorophenyl)-2-methyloxazol-5-yl)-3′-fluoro-4′-(hydroxymethyl)-5′-(methylsulfonyl)biphenyl-4-yl)-1-methyl-1H-pyrazol-3-yl)-2,2-difluoro-N-methylacetamide] | 0.072 µM | 79% | –
Cn1nc(C(F)(F)C(C)(C)O)cc1-c1ccc(-c2cc(F)c(CO)c(S(C)(=O)=O)c2)cc1-n1nncc1-c1ccc(OC(F)(F)F)cc1 [Example 3, 1,1-difluoro-1-(5-(3′-fluoro-4′-(hydroxymethyl)-5′-(methylsulfonyl)-3-(5-(4-(trifluoromethoxy)phenyl)-1H-1,2,3-triazol-1-yl)biphenyl-4-yl)-1-methyl-1H-pyrazol-3-yl)-2-methylpropan-2-ol] | 0.245 µM | 73% | –

Further lines, results first:

EC50 | Emax [1] | LXRbeta % EFFICACY [1] | Compound
0.348 µM | 60% | – | Cc1nc(-c2ccc(OC(F)(F)F)cc2)c(-c2cc(-c3cccc(C(C)(C)C#N)c3)ccc2-n2cc(Cl)c(C(F)(F)F)n2)o1 [Example 429, 2-(4′-(4-chloro-3-(trifluoromethyl)-1H-pyrazol-1-yl)-3′-(2-methyl-4-(4-(trifluoromethoxy)phenyl)oxazol-5-yl)-[1,1′-biphenyl]-3-yl)-2-methylpropanenitrile]
0.076 µM | 63% | – | CNS(=O)(=O)c1cccc(-c2ccc(-n3cc(Cl)c(C(F)(F)F)n3)c(-c3oc(C)nc3-c3ccc(OC(F)(F)F)cc3)c2)c1 [Example 444, 4′-(4-chloro-3-(trifluoromethyl)-1H-pyrazol-1-yl)-N-methyl-3′-(2-methyl-4-(4-(trifluoromethoxy)phenyl)oxazol-5-yl)-[1,1′-biphenyl]-3-sulfonamide]
1.01 µM | 16% | – | Cc1nc(-c2cc(-c3cccc(S(C)(=O)=O)c3)ccc2-n2ccc(C(C)(C)O)n2)c(-c2ccc(OC(F)(F)F)cc2)o1 [Example 417, 2-(1-(3-(2-methyl-5-(4-(trifluoromethoxy)phenyl)oxazol-4-yl)-3′-(methylsulfonyl)-[1,1′-biphenyl]-4-yl)-1H-pyrazol-3-yl)propan-2-ol]
0.042 µM | 71% | – | Cc1nc(-c2cc(-c3cccc(S(C)(=O)=O)c3)ccc2-n2nc(C(F)(F)F)cc2C)c(-c2ccc(OC(F)(F)F)cc2)o1 [Example 385, 2-methyl-4-(4-(5-methyl-3-(trifluoromethyl)-1H-pyrazol-1-yl)-3′-(methylsulfonyl)biphenyl-3-yl)-5-(4-(trifluoromethoxy)phenyl) oxazole]
0.041 µM | 80% | – | Cc1nc(-c2ccc(OC(F)(F)F)cc2)c(-c2cc(-c3cccc(C(C)(C)C(N)=O)c3)ccc2-n2cc(Cl)c(C(F)(F)F)n2)o1 [Example 430, 2-(4′-(4-chloro-3-(trifluoromethyl)-1H-pyrazol-1-yl)-3′-(2-methyl-4-(4-(trifluoromethoxy)phenyl)oxazol-5-yl)-[1,1′-biphenyl]-3-yl)-2-methylpropanamide]
